Activity calls are given as the source filed them. The calls are words filed in the database; no cut-off is given here.

The test relates to Staphylococcus aureus. Kind of test: Antivirulence activity against methicillin-resistant Staphylococcus aureus USA300 LAC assessed as change in Hla transcriptional level at 10 ug/ml incubated for 8 to 16 hrs by qRT-PCR analysis. Type of test: functional, organism-based. To be noted: dose 10.0 µg/ml, time 8-16 hrs.
As to `COC1=C2C[C@@H](C)C[C@H](OC)[C@H](O)[C@@H](C)/C=C(\C)[C@H](OC(N)=O)[C@@H](OC)/C=C\C=C(/C)C(=O)NC(=CC1=O)C2=O`, the outcome was inactive. Take `CO[C@@H](C[C@H](C)Cc1cc(O)cc(NC(C)=O)c1)[C@H](O)[C@H](C)C(=O)O`: the result was inactive. On to `CO[C@H]1/C=C\C=C(/C)C(=O)NC2=CC(=O)C(O)=C(C[C@@H](C)C[C@H](OC)[C@H](O)[C@@H](C)/C=C(\C)[C@@H]1OC(N)=O)C2=O`, for which the result was inactive.
